The record followed here is ChEMBL document CHEMBL1138817, “Synthesis and cytotoxic activity of 3-O-acyl/3-hydrazine /2-bromo/20,29-dibromo betulinic acid derivatives” (2004).

Format in all cases: functional
One experiment has as its system U-937. Description: Cytotoxic activity against human U937 cell line was measured after 72 hr using MTT assay. The conditions noted are these: Homo sapiens, U-937, 72 h; read-out: ED50 (the source's name). (Tetrazolium assays rely on reduction of a dye to a coloured formazan, in cell work by metabolically active cells.)
The subject of another experiment is Jurkat. Briefly: Cytotoxic activity against human JurkatE6.1 cell line was measured after 72 h using MTT assay. The conditions noted are these: for EC50: Homo sapiens, Jurkat, 72 h, read-out: ED50 (the source's name).
The next experiment has as its system CCRF-CEM. Briefly: Cytotoxic activity against human CEM.CM3 cell line was measured after 72 hr using MTT assay. The following applies: Homo sapiens, CCRF-CEM, 72 h; read-out: ED50 (the source's name).
The next experiment concerns PA-1. Description: Cytotoxic activity against human PA-1 cell line was measured after 72 hr using MTT assay. The conditions noted are these: Homo sapiens, PA-1, 72 h; read-out: ED50 (the source's name).
The test system of another experiment is MOLT-4. Briefly: Cytotoxic activity against human MOLT-4 cell line was measured after 72 hr using MTT assay. The following applies: Homo sapiens, MOLT-4, 72 h; read-out: ED50 (the source's name).
The subject of the next experiment is DU-145. Briefly: Cytotoxic activity against human DU145 cell line was measured after 72 hr using MTT assay. The following applies: for EC50: Homo sapiens, DU-145, 72 h, read-out: ED50 (the source's name).
The next experiment has as its system BRISTOL8. Description: Cytotoxic activity against human BRISTOL8 cell line was measured after 72 hr using MTT assay. The following applies: Homo sapiens, BRISTOL8, 72 h; read-out: ED50 (the source's name).
The test system of a further experiment is A549. Description: Cytotoxic activity against human A549 cell line was measured after 72 hr using MTT assay. The conditions noted are these: A549, 72 h, read-out: ED50 (the source's name).
The test system of another experiment is L132. Briefly: Cytotoxic activity against human L132 cell line was measured after 72 hr using MTT assay. The conditions noted are these: L132, 72 h, read-out: ED50 (the source's name).

Converted amounts (≈) assume the structure as drawn. A value given as a limit tells only on which side of the number the result lay.

As to `C=C(C)[C@@H]1CC[C@]2(C(=O)O)CC[C@]3(C)[C@H](CC[C@@H]4[C@@]5(C)CCC(=O)C(C)(C)[C@@H]5CC[C@]43C)[C@@H]12` [BETUNOLIC ACID], the EC50 in the experiment with U-937 turned out to be 2.8 µg/mL (≈ 6.16 µM); in the experiment with Jurkat it was 0.4 µg/mL (≈ 0.88 µM); in the experiment with CCRF-CEM it was 4.4 µg/mL (≈ 9.68 µM); with PA-1, 1.2 µg/mL (≈ 2.64 µM); with MOLT-4 it was 1.2 µg/mL (≈ 2.64 µM); in the experiment with DU-145, 3.1 µg/mL (≈ 6.82 µM). Besides, the EC50 is 2.6 µg/mL (≈ 5.72 µM) in the experiment on BRISTOL8, above 10 µg/mL in the experiment on A549 and above 10 µg/mL in the experiment on L132.

In the case of `CC1(C)C(=O)C(Br)C[C@@]2(C)C1CC[C@]1(C)C2CCC2C3[C@H](C(C)(Br)CBr)CC[C@]3(C(=O)O)CC[C@]21C` (some centres undefined), the EC50 in the experiment on U-937 is 2.1 µg/mL (≈ 3.03 µM); with Jurkat, 2.1 µg/mL (≈ 3.03 µM); in the experiment on CCRF-CEM it was 2.8 µg/mL (≈ 4.04 µM); in the experiment with PA-1, 5.1 µg/mL (≈ 7.36 µM); with MOLT-4 it was 5.9 µg/mL (≈ 8.51 µM); in the experiment with DU-145 it was 3.6 µg/mL (≈ 5.19 µM). Besides, the EC50 was 3.8 µg/mL (≈ 5.48 µM) in the experiment with BRISTOL8, above 10 µg/mL in the experiment on A549 and above 10 µg/mL with L132.

As for `C=C(C)[C@@H]1CC[C@]2(C(=O)OCC(=O)OC)CC[C@]3(C)C(CCC4[C@@]5(C)CC[C@H](O)C(C)(C)C5CC[C@]43C)C12` (stereo in doubt; 3), the EC50 in the experiment with U-937 was above 10 µg/mL; with CCRF-CEM, 3.2 µg/mL (≈ 6.05 µM); with PA-1, 5.9 µg/mL (≈ 11.2 µM); in the experiment on MOLT-4 it was 4 µg/mL (≈ 7.56 µM); in the experiment with BRISTOL8, 5.3 µg/mL (≈ 10 µM); in the experiment with A549, above 10 µg/mL. The EC50 with L132 was above 10 µg/mL. The figures for the ED50 in the experiment with Jurkat and in the experiment with DU-145 were 1.4 µg/mL (≈ 2.65 µM) and above 10 µg/mL, respectively.

For `CC(Br)(CBr)[C@@H]1CC[C@]2(C(=O)O)CC[C@]3(C)C(CCC4[C@@]5(C)CC(Br)[C@H](O)C(C)(C)C5CC[C@]43C)C12` (some centres undefined), the EC50 was above 10 µg/mL in the experiment on U-937; above 10 µg/mL with Jurkat; 6.8 µg/mL (≈ 9.78 µM) with CCRF-CEM; 6 µg/mL (≈ 8.63 µM) in the experiment on PA-1; 3.6 µg/mL (≈ 5.18 µM) with MOLT-4; above 10 µg/mL with DU-145. Further, the EC50 was 7 µg/mL (≈ 10.1 µM) in the experiment on BRISTOL8, above 10 µg/mL in the experiment on A549 and above 10 µg/mL with L132.

Turning to `CC(C)[C@@H]1CC[C@]2(C(=O)O)CC[C@]3(C)C(CCC4[C@@]5(C)CC[C@H](O)C(C)(C)C5CC[C@]43C)C12` (some centres undefined) [DIHYDROBETULINIC ACID], the EC50 in the experiment with U-937 came out at 0.9 µg/mL (≈ 1.96 µM); with Jurkat, 4.9 µg/mL (≈ 10.7 µM); with CCRF-CEM, 1.3 µg/mL (≈ 2.83 µM); with PA-1, 0.7 µg/mL (≈ 1.53 µM); in the experiment with MOLT-4, 0.6 µg/mL (≈ 1.31 µM); in the experiment with DU-145, 0.7 µg/mL (≈ 1.53 µM). Moreover, the EC50 was 4.4 µg/mL (≈ 9.59 µM) in the experiment with BRISTOL8, 2.2 µg/mL (≈ 4.8 µM) in the experiment with A549 and 2.4 µg/mL (≈ 5.23 µM) in the experiment on L132.

Turning to `COC(=O)C(C)C(=O)O[C@H]1CC[C@@]2(C)C(CC[C@]3(C)C2CCC2C4[C@H](C(C)C)CC[C@]4(C(=O)O)CC[C@]23C)C1(C)C` (some centres undefined), the EC50 with U-937 turned out to be 4 µg/mL (≈ 6.98 µM); in the experiment with Jurkat it was 3.8 µg/mL (≈ 6.63 µM); in the experiment with CCRF-CEM, 3.1 µg/mL (≈ 5.41 µM); in the experiment on PA-1 it was 1.3 µg/mL (≈ 2.27 µM); in the experiment on MOLT-4, 2.8 µg/mL (≈ 4.89 µM); in the experiment on DU-145, 1 µg/mL (≈ 1.75 µM). Also, the EC50 turned out to be 2.1 µg/mL (≈ 3.67 µM) in the experiment with BRISTOL8, 2.1 µg/mL (≈ 3.67 µM) with A549 and 7.7 µg/mL (≈ 13.4 µM) with L132.

For the compound `CC(=O)O[C@H]1CC[C@@]2(C)C(CC[C@]3(C)C2CCC2C4[C@H](C(C)C)CC[C@]4(C(=O)O)CC[C@]23C)C1(C)C` (some centres undefined), the EC50 in the experiment with U-937 worked out at 1.8 µg/mL (≈ 3.59 µM); in the experiment on Jurkat, 1.6 µg/mL (≈ 3.2 µM); with CCRF-CEM it was 1 µg/mL (≈ 2 µM); in the experiment with PA-1 it was 0.8 µg/mL (≈ 1.6 µM); in the experiment on MOLT-4, 1.1 µg/mL (≈ 2.2 µM); in the experiment on DU-145, 0.9 µg/mL (≈ 1.8 µM). Further, the EC50 came out at 3.4 µg/mL (≈ 6.79 µM) in the experiment on BRISTOL8, 2.3 µg/mL (≈ 4.59 µM) in the experiment on A549 and 2.9 µg/mL (≈ 5.79 µM) in the experiment with L132.

Regarding `C=C(C)[C@@H]1CC[C@]2(C(=O)O)CC[C@]3(C)C(CCC4[C@@]5(C)CC[C@H](OC(=O)C(C)(C)C)C(C)(C)C5CC[C@]43C)C12` (some centres undefined), the EC50 was above 10 µg/mL with U-937; above 10 µg/mL with Jurkat; above 10 µg/mL in the experiment on CCRF-CEM; 0.7 µg/mL (≈ 1.29 µM) with PA-1; 2.4 µg/mL (≈ 4.44 µM) in the experiment on MOLT-4; 1 µg/mL (≈ 1.85 µM) with DU-145. The EC50 in the experiment with BRISTOL8, in the experiment on A549 and in the experiment on L132 was above 10 µg/mL throughout.

Regarding `CC(C)[C@@H]1CC[C@]2(C(=O)O)CC[C@]3(C)C(CCC4[C@@]5(C)CC(Br)C(=O)C(C)(C)C5CC[C@]43C)C12` (some centres undefined), the EC50 in the experiment on U-937 amounted to 1.3 µg/mL (≈ 2.43 µM); with Jurkat, 0.7 µg/mL (≈ 1.31 µM); in the experiment with CCRF-CEM it was 0.3 µg/mL (≈ 0.56 µM); with PA-1, 0.5 µg/mL (≈ 0.934 µM); in the experiment with MOLT-4, 0.4 µg/mL (≈ 0.747 µM); in the experiment with DU-145 it was 3 µg/mL (≈ 5.6 µM). The results for the EC50 in the experiment on BRISTOL8, in the experiment on A549 and with L132 were 2.9 µg/mL (≈ 5.41 µM), above 10 µg/mL and above 10 µg/mL, respectively.

As to `C=C(C)[C@@H]1CC[C@]2(C(=O)OCC(=O)O)CC[C@]3(C)C(CCC4[C@@]5(C)CC[C@H](O)C(C)(C)C5CC[C@]43C)C12` (some centres undefined), the EC50 in the experiment on U-937 was above 10 µg/mL; with Jurkat it was above 10 µg/mL; with CCRF-CEM, above 10 µg/mL; in the experiment with PA-1, 1.3 µg/mL (≈ 2.53 µM); in the experiment on MOLT-4 it was 3.1 µg/mL (≈ 6.02 µM); with DU-145, above 10 µg/mL. Moreover, the EC50 with A549 and in the experiment with L132 was above 10 µg/mL throughout.
